PMC10238281 (International Journal of Biological Macromolecules, 2023)

Assays:
SARS2-S pseudovirus = assay: microbe, parasite or virus in culture; format: cell-based, SARS-CoV-2; details: for activity at 2 µM: A549-ACE2, 72 h, read-out: Luciferase ratio (%), 2 μM
[1] = Tissue distribution / pharmacokinetics in female ICR mice; format: in vivo
spike RBD protein = spike RBD protein (Severe acute respiratory syndrome coronavirus 2, UniProt P0DTC2); format: binding, SARS-CoV-2

CN1CCN(c2ccc(-c3cnc4[nH]cc(C(=O)c5ccc(F)cc5)c4c3)cc2)CC1 [ASM-2, (4-Fluorophenyl)(5-(4-(4-methylpiperazin-1-yl)phenyl)-1H-pyrrolo[2,3-b]pyridin-3-yl)methanone]
activity at 2 µM (SARS2-S pseudovirus; Pseudovirus): < 25%

COc1ccc(C(=O)c2c[nH]c3ncc(-c4ccc(N5CCNCC5)nc4)cc23)cc1 [ASM-4, (4-Methoxyphenyl)(5-(6-(piperazin-1-yl)pyridin-3-yl)-1H-pyrrolo[2,3-b]pyridin-3-yl)methanone]
activity at 2 µM (SARS2-S pseudovirus; Pseudovirus): < 25%

O=C(c1ccc(F)cc1)c1c[nH]c2ncc(-c3ccc(N4CCNCC4)nc3)cc12 [ASM-7, (4-Fluorophenyl)(5-(6-(piperazin-1-yl)pyridin-3-yl)-1H-pyrrolo[2,3-b]pyridin-3-yl)methanone]
Organ distribution (heart, liver, spleen, lung, kidney, brain) ([1]; female ICR mice, 1 h after oral administration (30 mg/kg)): favorable targetability towards the lung | Blood versus lung concentration ([1]; female ICR mice, intravenous administration, 5 min): concentration of ASM-7 in the lung was substantially higher | Detection in the lung after oral administration ([1]; female ICR mice, oral, 4 h): could still be detected in the lung | concentration at 5 min ([1]; female, ICR, mouse, lung, iv, 3 mg/kg): 30000 ng/g | Fold advantage of EC50 over G7a (SARS2-S pseudovirus): 20 fold | EC50 (SARS2-S pseudovirus; Pseudovirus, A549-ACE2, read-out: EC50, inhibition of SARS2-S pseudovirus entry): 450 nM

O=C(c1cccc(F)c1)c1c[nH]c2ncc(-c3ccc(N4CCNCC4)nc3)cc12 [ASM-9, (3-Fluorophenyl)(5-(6-(piperazin-1-yl)pyridin-3-yl)-1H-pyrrolo[2,3-b]pyridin-3-yl)methanone]
activity at 2 µM (SARS2-S pseudovirus; Pseudovirus): < 25%

O=C(CCCCC1SCC2NC(=O)NC21)NCCCCCC(=O)N1CCN(c2ccc(-c3cnc4[nH]cc(C(=O)c5ccc(F)cc5)c4c3)cn2)CC1 (centres unmarked) [Biotin-ASM-7, N-(6-(4-(5-(3-(4-Fluorobenzoyl)-1H-pyrrolo[2,3-b]pyridin-5-yl)pyridin-2-yl)piperazin-1-yl)-6-oxohexyl)-5-(2-oxohexahydro-1H-thieno[3,4-d]imidazol-4-yl)pentanamide]
Binding / pull-down of spike RBD protein by streptavidin IP (spike RBD protein): could pull down the spike RBD protein

O=C(CCCCC1SCC2NC(=O)NC21)NCCCCCC(=O)N1CCN(c2ccc(-c3cnc4[nH]c(/C=C/c5ccccc5O)nc4c3)cn2)CC1 (centres unmarked) [Biotin-G7a, (E)-N-(6-(4-(5-(2-(2-Hydroxystyryl)-3H-imidazo[4,5-b]pyridin-6-yl)pyridin-2-yl)piperazin-1-yl)-6-oxohexyl)-5-(2-oxohexahydro-1H-thieno[3,4-d]imidazol-4-yl)pentanamide]
Binding / pull-down of spike RBD protein by streptavidin IP (spike RBD protein): retained the ability to bind spike RBD protein
